In patent US10251865B2, “Method of activating regulatory T cells with alpha-2B adrenergic receptor agonists” (Allergan, Inc., priority 2010, dated 2019):

Experiments:
[1] = system: EAAU rats; test: Experimental autoimmune anterior uveitis (EAAU) in rats; format: in vivo, rat
Experimental: Male Lewis rats (180-200 g) were immunized by a single left hind-footpad injection with 150, μg (in 100 μL) of purified MAA complex from bovine eye. MAA proteins were suspended in phosphate-buffered saline (PBS, pH7.2) and emulsified (1:1 v/v) in complete Freund's adjuvant (CFA, VWR Scientific) containing 1 μg/100 μl of Pertussis Toxin (PTx) emulsion mixture. Control animals were injected with PBS emulsified with CFA and PTx.
Assessment of intraocular inflammation was conducted starting day 7 after immunization, Animals were examined every other day between day 7 and 19 post-immunization for clinical signs and symptoms of uveitis using slit lamp microscopy. Aqueous humor was collected to evaluate the number of inflammatory cells and protein levels. Cell counts were done with 10 ul with a hemocytometer under the light microscope. Protein concentration was measured with a Protein assay solution from Bio-Rad, using BSA as the protein standard. Pro-inflammatory cytokine and chemokine levels were measured on Luminex (Biosource-Invitrogen, Carlsbad, Calif.). Blood, spleen, and eyes were harvested on days 11, 14, and 19 to determine blood leukocyte differentiation, splenic T cell activation status via Flow cytometry, as well as histopathology.

[2] = system: regulatory T cells and immune cells in the CNS; test: Flow cytometry of immune cells and Treg cells in PLP-induced EAE mice; format: in vivo
Description: The mouse model of experimental autoimmune encephalomyelitis (EAE) has been used extensively to understand the mechanisms underlying the immunopathogenesis of MS. […] Components of the immune system including T cells, macrophage, and antibodies are important contributors to myelin destruction in EAE mice. Further, inflammation also gives rise to multifocal regions demyelination culminating in clinical signs of neurologic dysfunction that include loss of tail tone, abnormal gait and partial-to-complete hind-limb paralysis. PLP-induced EAE model offers the ability to simultaneously investigate the pathogenic mechanisms of CNS inflammation and demyelination and MS-associated pain, a multi-targeted concept that we have optimized here at Allergan. Using sterile technique proteolipid protein myelin peptide (PLP) (139-159: […]) is mixed 1:1 with incomplete Freund's adjuvant (IFA) (Final concentration of 2 mg/ml PLP). 8-10 week old Female SJL mice (Taconic) are injected subcutaneously with 100 μl PLP/IFA (200 μg PLP/injection) on both the right and left hind-flank (day 0) using a 26G needle. […]
Mice were routinely visually scored for behavioral abnormalities on a scale from 0-5; 0-no abnormality, 1-partial loss of tail tonicity (partial limp tail), 2-loss of tail tonicity and hind-limb weakness 3-unsteady gait and partial hind-limb paralysis, 4-complete hind-limb paralysis and 5-moribund or dead. […] Allodynia was measured by the Von Frey hairs method as described earlier. […]
To determine surface expression of CD4 (Helper T cells), CD8 (killer T cells), CD25 (activated helper T cells and regulatory T cells), CD45 (macrophage and microglial cells) and F4/80 (macrophage and microglial cells) 5×10^5 cells/100 μL FACS buffer (PBS, 0.02% sodium azide [Sigma-Aldrich] and 2% bovine serum albumin) were incubated with appropriate antibodies from BD biosciences, Mountain View, Calif. […] Expression was analyzed (FACSCalibur with CellQuest software; BD Biosciences, Mountain View, Calif.).

[3] = system: goblet cells and T cells in the conjunctiva; test: Dry eye desiccating stress in mice, therapeutic mode, conjunctiva histology; format: in vivo; conditions: 3 mg/kg/day via osmotic minipump, mice previously exposed to blower, comparable to Cyclosporine A, FIG. 12
Description: C57BL/6 (C57BL/6NTac) and B6.Cg/NTac-Foxn1nuNE9 were purchased from Taconic, Inc. (Germantown, N.Y.). Mice were used at 6-10 weeks of age. Animal studies approval was obtained from the Allergan Animal Care and Use Committee. All studies adhered to the Association for Research in Vision and Ophthalmology statement for the Use of Animals in Ophthalmic and Vision Research. As described in the literature dry eye was induced by treating mice with subcutaneous injections of scopolamine hydrobromide (0.5 mg/0.2 ml; Sigma-Aldrich, St. Louis, Mo.) three times a day alternating between the left and right flanks (Neiderkorn et al, 2006). Mice were placed in a cage containing perforated plastic screens on each side of the cage to permit airflow from fans (one fan on each side of the cage) for 16 hr/day in a hood (AirClean Systems, Raleigh, N.C.). Room humidity was kept below 40%. Desiccating stress (DS) was induced for 10 consecutive days. Spleens and cervical lymph nodes (CLN) were collected from mice subjected to DS and NS, and one donor-equivalent of either spleen or CLN CD4+ cells was transferred i.p. to syngeneic nude mice. One splenic equivalent of T cells was equal to 5×10^7 cells. Three days later samples were collected for analysis. For tear collection, 1.5 μL of PBS was placed on each eye, and then 1 μL of tear was collected from both eyes and placed in 8 μL of cytokine assay buffer (Beadlyte; Millipore, Billerica, Mass.). Buffer and tear fluid were collected by capillary action using a 1 μL volume glass capillary tube (Drummond Scientific, Broomhall, Pa.) that was placed in the tear meniscus of the lateral canthus. Samples were frozen at −80° C. until the time of assay. Histological analysis was done by staining […] samples with antibody to CD4 and H&E staining to quantify goblet cells and T cells in the conjunctiva. To test the compounds in a therapeutic mode, the animals were exposed to the desiccating stress for two weeks and then allowed to rest for 7 days in regular housing cages. The animals were then re-exposed to desiccating stress for an additional 7 days to mimic relapsing form of chronic dry eye disease. Drug treatment with Compound B was started 2 days before re-exposure to desiccating stress. In both the studies Compound B was dosed at 3 mg/kg/day. Adoptive transfer, tear cytokine analysis and histological analysis were performed as described above.

Row | Structure (SMILES) | anterior inflammation ([1]; 1 mg/kg/day from days 1-18 or days 7-18 following EAAU induction (3 days oral TID then osmotic minipump)) | CD4+ T cell population in the spleen ([1]; EAAU rats) | lymphocyte populations in the blood ([1]; EAAU rats) | neutrophil cell counts in the blood ([1]; EAAU rats) | clinical scores of anterior uveitis ([1]; EAAU rats, FIG. 8) | inflammatory cell numbers in the aqueous humor ([1]; EAAU rats, FIG. 8) | presence of immune cells in the CNS ([2]; flow cytometry at the end of the study, FIG. 5) | Treg number ([2]; mice immunized with proteolipid protein, 3 mg/kg/day by osmotic minipump, FIG. 3) | T cell infiltration into the conjunctiva [3] | goblet cell loss [3] | frequency of regulatory T cells (CD4+CD25hiFoxP3+) in the spinal cord ([2]; flow cytometry on day 37, FIG. 7)
1 | CCC1=CC(Cc2c[nH]cn2)CCC1 (stereo not shown) [Compound B] | effective in partially abrogating | normalized | normalized | decreased | decreased | decreased | significantly reduced | selectively boosted | significantly prevented | significantly prevented | 
2 | Clc1cccc(CNC2=NCCN2)c1Cl [Compound C] |  |  |  |  |  |  |  |  | significantly reduced | significantly reduced | increased
